According to the NIST ThermoML archive (doi:10.1021/je700321s):

Test: xn = mol fraction of the nth substance listed
Settings: Liquid, Vibrating tube method

CC(C)O [propan-2-ol] + O=C=O
Settings	mass density [kg/m3]
313.08 K, 10061 kPa, x2 = 0.7943	800.9
313.08 K, 10515 kPa, x2 = 0.7943	804
313.08 K, 11013 kPa, x2 = 0.7943	807.3
313.08 K, 11507 kPa, x2 = 0.7943	810.6
313.08 K, 11994 kPa, x2 = 0.7943	813.5
313.08 K, 12199 kPa, x2 = 0.7943	814.6
313.08 K, 12410 kPa, x2 = 0.7943	815.6
313.08 K, 12606 kPa, x2 = 0.7943	816.7
313.09 K, 2502 kPa, x2 = 0.139	781.7
313.09 K, 3002 kPa, x2 = 0.139	782.3
313.09 K, 3513 kPa, x2 = 0.139	782.9
313.09 K, 4008 kPa, x2 = 0.139	783.5
313.09 K, 4501 kPa, x2 = 0.139	784.1
313.09 K, 5001 kPa, x2 = 0.139	784.7
313.09 K, 5497 kPa, x2 = 0.139	785.3
313.09 K, 6023 kPa, x2 = 0.139	785.9
313.09 K, 6504 kPa, x2 = 0.139	786.5
313.09 K, 7026 kPa, x2 = 0.139	787.1
313.09 K, 7489 kPa, x2 = 0.139	787.6
313.09 K, 7960 kPa, x2 = 0.9492	642.1
313.09 K, 7998 kPa, x2 = 0.139	788.2
313.09 K, 8001 kPa, x2 = 0.9492	648.3
313.09 K, 8200 kPa, x2 = 0.9492	666.4
313.09 K, 8400 kPa, x2 = 0.9492	677.7
313.09 K, 8509 kPa, x2 = 0.139	788.8
313.09 K, 8606 kPa, x2 = 0.9492	688.5
313.09 K, 8803 kPa, x2 = 0.9492	697
313.09 K, 8995 kPa, x2 = 0.139	789.3
313.09 K, 9002 kPa, x2 = 0.9492	704
313.09 K, 9201 kPa, x2 = 0.9492	710.9
313.09 K, 9408 kPa, x2 = 0.9492	717.1
313.09 K, 9503 kPa, x2 = 0.139	789.8
313.09 K, 9604 kPa, x2 = 0.9492	722.7
313.09 K, 9800 kPa, x2 = 0.9492	728.1
313.09 K, 10003 kPa, x2 = 0.9492	733.1
313.09 K, 10201 kPa, x2 = 0.9492	737.5
313.09 K, 10405 kPa, x2 = 0.9492	741.5
313.09 K, 10605 kPa, x2 = 0.9492	744.7
313.09 K, 10803 kPa, x2 = 0.9492	747.4
313.1 K, 3601 kPa, x2 = 0.2003	786.8
313.1 K, 4007 kPa, x2 = 0.2003	787.4
313.1 K, 4523 kPa, x2 = 0.2003	788.1
313.1 K, 5069 kPa, x2 = 0.2003	788.7
313.1 K, 5497 kPa, x2 = 0.2003	789.3
313.1 K, 5812 kPa, x2 = 0.4248	801.4
313.1 K, 6012 kPa, x2 = 0.4248	801.7
313.1 K, 6027 kPa, x2 = 0.2003	790
313.1 K, 6200 kPa, x2 = 0.4248	802.1
313.1 K, 6395 kPa, x2 = 0.4248	802.6
313.1 K, 6504 kPa, x2 = 0.2003	790.7
313.1 K, 6602 kPa, x2 = 0.4248	803.1
313.1 K, 6803 kPa, x2 = 0.4248	803.5
313.1 K, 7010 kPa, x2 = 0.2003	791.3
313.1 K, 7055 kPa, x2 = 0.4248	804.1
313.1 K, 7208 kPa, x2 = 0.4248	804.3
313.1 K, 7409 kPa, x2 = 0.4248	804.8
313.1 K, 7494 kPa, x2 = 0.2003	791.9
313.1 K, 7611 kPa, x2 = 0.4248	805.2
313.1 K, 7802 kPa, x2 = 0.4248	805.7
313.1 K, 7989 kPa, x2 = 0.2003	792.6
313.1 K, 7998 kPa, x2 = 0.4248	806.1
313.1 K, 8201 kPa, x2 = 0.4248	806.5
313.1 K, 8557 kPa, x2 = 0.2003	793.2
313.1 K, 8597 kPa, x2 = 0.4248	807.3
313.1 K, 8797 kPa, x2 = 0.4248	807.6
313.1 K, 9017 kPa, x2 = 0.2003	793.8
